# In article PMC3976407, “Inhibition of Fatty Acid Binding Proteins Elevates Brain Anandamide Levels and Produces Analgesia” (PLoS ONE, 2014):
# Tests used:
# [1] = system: rectal temperature in mice; test: Rectal temperature; format: in vivo, mouse; settings: 20 mg/kg, i.p., baseline vs 90 min
# Procedure: Rectal temperature was measured at baseline and 90 min following vehicle or drug administration, by inserting a thermocouple probe 1.5 cm into the rectum and the temperature was read using a thermocouple meter (Kent Scientific).
# FAAH = target: T1, FAAH (Mus musculus, UniProt O08914); test: AEA hydrolysis by brain and liver homogenates after injection of inhibitor; format: biochemical; settings: mouse brain and liver homogenates harvested 60 min after 20 mg/kg, i.p.; 30 μM [14C]AEA
# T1 construct: from tissue; host or cells: mouse brain and liver homogenates
# T1 sequence (O08914 1-579): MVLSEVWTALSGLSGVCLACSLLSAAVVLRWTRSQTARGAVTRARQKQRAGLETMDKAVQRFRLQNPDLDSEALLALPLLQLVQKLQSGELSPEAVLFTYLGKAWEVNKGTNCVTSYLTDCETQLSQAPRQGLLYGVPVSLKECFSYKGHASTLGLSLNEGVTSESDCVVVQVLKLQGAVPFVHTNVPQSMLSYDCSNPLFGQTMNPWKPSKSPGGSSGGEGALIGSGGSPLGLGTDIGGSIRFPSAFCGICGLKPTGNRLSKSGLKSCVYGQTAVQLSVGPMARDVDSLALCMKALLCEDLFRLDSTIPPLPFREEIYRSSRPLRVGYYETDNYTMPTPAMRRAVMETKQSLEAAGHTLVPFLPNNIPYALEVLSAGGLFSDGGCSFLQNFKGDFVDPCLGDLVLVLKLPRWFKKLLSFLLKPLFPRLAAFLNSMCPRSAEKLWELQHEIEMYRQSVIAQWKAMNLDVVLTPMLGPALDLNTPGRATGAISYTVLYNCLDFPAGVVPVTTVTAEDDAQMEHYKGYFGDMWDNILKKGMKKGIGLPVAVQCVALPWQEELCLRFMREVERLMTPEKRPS
# Procedure: AEA and 2-OG hydrolysis was determined using modified protocols to those described previously, [35]. Mice were injected with inhibitors (20 mg/kg, i.p.) and the brains and livers were harvested 60 min later. The tissue homogenates were subsequently incubated with 30 μM [^14C]AEA or 10 μM [^3H]2-OG for 30 min. Reactions were stopped with two volumes of chloroform:methanol (1∶1) and the methanol phase was counted using a Beckman LS6500 scintillation counter.
# rats subjected to CCI = test: Rat neuropathic pain model (chronic constriction injury of the sciatic nerve); format: in vivo; settings: 20 mg/kg i.p.
# Source text: Male Fisher 344 rats were habituated and pre-injury evoked responses were obtained. The Hargreaves test was used to assess thermal hyperalgesia. Briefly, plexiglass enclosures were set atop a plexiglass platform and infrared source set at 50% power located under the platform was used as the heat stimulus (Ugo Basile). A 200 mW, 535 nm diode laser was mounted in an adjustable stand placed beneath the plexiglass platform, and was used as an alternative heat stimulus for some of the animals in this study. The latency time to hind paw lift during heating of the plantar surface was recorded. Five recordings were obtained on each hind paw with at least 2 min rest between measurements. The maximum time for exposure to the infrared or diode laser source was 30.5 s to avoid any possible tissue injury. For mechanical threshold measurements, the animal enclosures rested on a screen with mesh of 0.5 cm spacing. Following acclimation, an electronic von Frey Anesthesiometer (IITC Life Sciences) was applied with increasing pressure to the plantar surface of the hind paw until the animals lifted the hind paw. The number of grams of force applied by the probe to induce withdrawal was recorded. Five recordings were obtained on each hind paw with at least 3 min between measurements. For CCI surgeries, our procedure closely followed that reported previously. Briefly, each animal received an i.p. injection of ketamine/xylazine (75 mg/kg and 10 mg/kg, respectively). The hind leg was surgically prepped and the anesthetized animal placed prone on an sterile towel over a heating pad. The temperature was monitored rectally. A skin incision was made mid-thigh with a medium curved scalpel and then scissors were used to expose the sciatic nerve. Approximately 1 cm of the main trunk proximal to the trifuraction was isolated and 4 strands of 4-0 chromic gut were tied around the nerve ∼ 1 mm apart under magnification. In a modification of the original method, a 2-0 prolene strand was placed between the nerve and the gut to which the suture was tightened. The prolene strand was then removed. This prevented over tightening and reduced subsequent motor paralysis. The muscle layers were then reopposed and sutured, and surgical staples were used to close the skin. On post-injury days 7 through 10, heat and mechanical measurements were obained for the ipsilateral hindpaw of each CCI animal. Immediately following the post-injury measurements, animals were randomized and received i.p. injections of vehicle or 20 mg/kg SBI26 (DMSO:cremophor:sterile saline 1∶1∶2 by volume). Up to 0.8 ml of drug or vehicle was injected. The observer was blinded as to administration of drug or vehicle. Thermal and mechanical measurements were performed at 1 and 4 h post-injection. Data were normalized to pre-injury baseline measurements for each animal.
# [2] = system: brain endocannabinoid levels; test: Lipid quantification of brain NAEs and 2-AG; format: in vivo; settings: mouse, 20 mg/kg, i.p.
# Procedure: Quantification of endogenous NAEs and 2-AG were performed as previously described with minor modifications. Mice were rapidly euthanized by decapitation and their brains flash frozen in liquid nitrogen. The brains were subsequently thawed, weighed, and homogenized in 8 ml of 2∶1∶1 CHCl3:MeOH:Tris (50 mM, pH 8) in the presence of 4 ng d4-PEA, 4 ng d2-OEA, 400 pg d4-AEA, and 40 ng d5-2-AG. Following centrifugation at 4°C, the organic layer was removed and brought up to 8 ml with the same buffer and centrifuged again. The resulting organic layer was dried down with argon and resuspended with 100 μl of 2∶1 CHCl3:MeOH and 10 μl was injected into the Thermo TSQ Quantum Access Triple Quadropole mass spectrometer. LC separation was achieved on a Gemini C18 (50×2 mm×5 μm) equipped with a Gemini C18 SecurityGuard precolumn (4 mm length ×2 mm internal diameter). Mobile phase A consisted of 95∶5% v:v H20:MeOH while mobile phase B was composed of 60∶35∶5 v:v:v i-PrOH:MeOH:H2O and quantification was performed in the positive ion mode with the voltage set at 4 kV. 0.1% formic acid was added to assist in ionization. The sheath pressure was 30 and the capillary was set at 270 °C. The flow rate was 100 μl/min. The gradient started at 0% B and increased to 100% B over 15 min followed by an isocratic gradient of 100% B for 10 min, and was equilibrated for 15 min at 0% B.
# FABP3 = FABP3 (Homo sapiens, UniProt P05413); test: NBD-stearate fluorescence displacement binding
# Chain of FABP3 (P05413 whole entry, species assumed): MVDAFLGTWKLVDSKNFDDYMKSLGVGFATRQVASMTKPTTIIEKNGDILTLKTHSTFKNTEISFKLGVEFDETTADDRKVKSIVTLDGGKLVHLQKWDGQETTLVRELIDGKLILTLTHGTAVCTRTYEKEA
# Procedure: Inhibitory constant (Ki) values were elucidated utilizing NBD-stearate fluorescence displacement as described previously [9], [31]. The tests were performed in 96-well plates containing inhibitors (0.1 – 50.0 μM), FABP, and NBD-stearate. Fluorescence intensity was measured with a FLUOstar OPTIMA spectrofluorometer with excitation and emission wavelengths of 460 and 544 nm, respectively.
smiles,measurement,setting,value
"O=C(O)C1C(c2ccccc2)C(C(=O)Oc2cccc3ccccc23)C1c1ccccc1 (stereo not drawn) [SBFI26, alpha-2,4-diphenylcyclobutane-1,3-dicarboxylic acid mono-1-naphthyl ester]",Rectal temperature,[1],does not reduce
same,Inhibition of AEA hydrolysis,FAAH,did not inhibit
same,Persistence of the effect on thermal hyperalgesia in CCI rats,rats subjected to CCI,up to 4 hrs
same,Effect on mechanical thresholds in CCI rats,rats subjected to CCI; 1 and 4 h,Neither compound altered
same,Effect on thermal hyperalgesia in CCI rats,rats subjected to CCI; measured 1 and 4 h post-injection,completely reversed
same,Brain 2-AG levels,[2]; 90 min,unaffected
same,Brain OEA levels,[2]; 90 min,unaffected
same,Brain PEA levels,[2]; 90 min,unaffected
same,Brain AEA levels,[2]; tissues harvested 90 min after administration,significantly elevated
same,Ki,FABP3,3.9 ± 0.7 µM
